Drawing on patent US10632206B2, “Zwitterionic polymers with therapeutic moieties” (priority 2008, dated 2020), this text covers IC50 for one compound.

Common to all, as to assay: In vitro cytotoxicity, CellTiter-Glo cell viability
What all share (format): cell-based
(In general: Cellular ATP, detected with luciferase, serves as a proxy for viable cell number.)

Assay [1] relates to colon (COLO 205) adenocarcinoma cells. The note with it: Homo sapiens, 72 h incubation, CPT-equivalent concentrations. The source says:
(§1) HPLC characterization of CPT liberation from CPT-polyMPC conjugates confirmed the importance of tailored linkers, and was informative for in vitro cell culture evaluation of conjugate toxicity against various cell lines. […] These CPT hydrolysis half-lives are, however, slower than those reported for PEGylated-SN38 conjugates, leading to an expected longer blood circulation time in vivo. […] Controls included a DMSO solution of CPT, and polyMPC itself in sterile distilled water. […] Importantly, the cytotoxicity was through the CPT only, since polyMPC by itself was non-toxic (FIG. 8).
(§2) Sodium azide, 4-(dimethylamino)pyridine (DMAP), N,N′-diisopropylethylamine (DIPEA), triethylamine (TEA), N-(3-Dimethylaminopropyl)-N′-ethylcarbodiimide hydrochloride (EDC), 2-bromopropionyl bromide, 2-bromoisobutyryl bromide, copper(I) bromide, 2,2′-bipyridine (bpy), 6-bromohexanoic acid, 2-[2-(2-chloroethoxy)ethoxy]ethanol, ethyl 2-bromoisobutyrate, 3-(trimethylsilyl)propargyl alcohol, methacyloyl chloride, mouse serum, and human plasma were purchased from Aldrich. 20(S)-camptothecin (CPT) was purchased from Acros. Chromium trioxide was purchased from Alfa Aesar. TFA was purchased from Fisher Scientific. Boc-Gly-OH was purchased from Advanced ChemTech. MPC monomer was synthesized in house. […] Cell viability was measured using CellTiter-Glo luminescent cell viability assays (Promega).
(§3) The COLO 205 and OVCAR 3 cancer cells were cultured in RPMI-1640 medium supplemented with 10% fetal bovine serum (FBS) or 20% FBS and 0.01 mg/ml bovine insulin, while MCF 7 cells were cultured in MEM medium supplemented with 10% FBS and 0.01 mg/ml bovine insulin. […] Cell viability post-treatment was measured using CellTiter-Glo luminescent cell viability assays (Promega) as per manufacturer's instructions on a FLUOstar OPTIMA plate reader (BMG LABTECH). The percentage camptothecin mediated toxicity was calculated with respect to untreated cells, and graphed to give dose response curves. IC50 values for each treatment were then calculated using the GraphPad Prism4 statistical analysis software.

In assay [2] the test system is human breast (MCF-7) adenocarcinoma cells. The note with it: MCF7, 72 h incubation, CPT-equivalent concentrations.
Excerpt: as §1, §2, §3

The test system of assay [3] is ovarian (OVCAR 3) adenocarcinoma cells. The note with it: Homo sapiens, 72 h incubation, CPT-equivalent concentrations.
Excerpt: as §1, §2, §3

The IC50 is the concentration needed to halve the response being measured. Regarding `CC[C@@]1(O)C(=O)OCc2c1cc1n(c2=O)Cc2cc3ccccc3nc2-1` [CPT, 20(S)-Camptothecin], the figures for the IC50 in assay [1], in assay [2] and in assay [3] were 0.32 µM, 0.29 µM and 0.13 µM, respectively.
